Assay results as given in patent publication US8383816B2, “Aryl-quinolyl compounds and their use” (Cancer Research Technology Limited, priority 2008, dated 2013).
pIC50: −log10 of the molar value.

Assays:
pERK = experiment: Cell Based Phospho-ERK Assay; settings: 6 h, cells incubated with test compound for 6 hours
Experimental: Biological Methods—Cell Based Phosho-ERK Assay
Compounds were assessed using a cell-based assay which was performed according to the following protocol.
Plate out 16,000 cells/well in 99 μL medium in a 96-well plate.
1. Add 1 μL inhibitor to the cells […].
2. Incubate the cells with test compound for 6 hours at 37° C.
3. Aspirate off the solution from all of the wells.
4. Fixate the cells with 100 μL 4% formaldehyde/0.25% Triton X-100 PBS per well.
5. Incubate the plate for 1 hour at 4° C.
6. Aspirate off the fixing solution and add 300 μL TBS per well.
7. Leave the plate overnight at 4° C.
1. Wash the plate 2× with 200 μL PBS per well.
2. Block with 100 μL 5% dried milk in TBS.
3. Incubate the plate for 20 minutes at 37° C.
4. Wash the plate 2× with 0.1% tween/H2O.
5. Add 50 μL of 3 μg/mL primary antibody pERK (Sigma M8159), diluted in 5% milk powder/TBS, to each well.
6. Incubate the plate for 2 hours at 37° C.
7. Wash the plate 3× with 0.1% tween/H2O.
8. Add 50 μL of 0.45 μg/mL secondary Europium-labelled anti-mouse antibody (Perkin Elmer) to each well.
9. Incubate the plate for 1 hour at 37° C.
10. Wash the plate 3× with 0.1% tween/H2O.
11. Add 100 μL enhancement solution (Perkin Elmer) to each well.
12. Leave the plate for approximately 10 minutes at room temperature before gently shaking the plate.
13. Read Europium Time Resolved Fluorescence in Victor2.
14. Wash the plate 2× with 0.1% tween/H2O.
15. Measure the protein concentration with BCA (Sigma) by adding 200 μL of solution per well.
16. Incubate the plate for 30 minutes at 37° C.
17. Read absorbance levels at 570 nm in a plate reader.
Note that Europium counts are normalised for protein levels by dividing counts by absorbance.
(§1) Values for the blank (no cells) are subtracted from all values. The DMSO controls are set as 100% activity and assay points (the response) are calculated as a percentage of the DMSO control. Data are plotted using Graphpad Prism software and a non-linear regression line is calculated using a variable slope sigmoidal dose-response equation (Y=Bottom+(Top−Bottom)/(1+10^((LogEC50−X)*HillSlope)) where X is the logarithm of concentration. Y is the response). The IC50 generated by this procedure is the concentration of the drug that produces a percentage control fluorescence value midway between the saturation, and zero-effect plateaus. Three independent assays are usually performed and the mean IC50 is reported.

B-RAF = B-RAF (Homo sapiens, UniProt P15056, V600E); experiment: DELFIA Kinase Assay; type: biochemical; settings: 100 μM ATP
Chain of B-RAF (P15056 whole entry V600E): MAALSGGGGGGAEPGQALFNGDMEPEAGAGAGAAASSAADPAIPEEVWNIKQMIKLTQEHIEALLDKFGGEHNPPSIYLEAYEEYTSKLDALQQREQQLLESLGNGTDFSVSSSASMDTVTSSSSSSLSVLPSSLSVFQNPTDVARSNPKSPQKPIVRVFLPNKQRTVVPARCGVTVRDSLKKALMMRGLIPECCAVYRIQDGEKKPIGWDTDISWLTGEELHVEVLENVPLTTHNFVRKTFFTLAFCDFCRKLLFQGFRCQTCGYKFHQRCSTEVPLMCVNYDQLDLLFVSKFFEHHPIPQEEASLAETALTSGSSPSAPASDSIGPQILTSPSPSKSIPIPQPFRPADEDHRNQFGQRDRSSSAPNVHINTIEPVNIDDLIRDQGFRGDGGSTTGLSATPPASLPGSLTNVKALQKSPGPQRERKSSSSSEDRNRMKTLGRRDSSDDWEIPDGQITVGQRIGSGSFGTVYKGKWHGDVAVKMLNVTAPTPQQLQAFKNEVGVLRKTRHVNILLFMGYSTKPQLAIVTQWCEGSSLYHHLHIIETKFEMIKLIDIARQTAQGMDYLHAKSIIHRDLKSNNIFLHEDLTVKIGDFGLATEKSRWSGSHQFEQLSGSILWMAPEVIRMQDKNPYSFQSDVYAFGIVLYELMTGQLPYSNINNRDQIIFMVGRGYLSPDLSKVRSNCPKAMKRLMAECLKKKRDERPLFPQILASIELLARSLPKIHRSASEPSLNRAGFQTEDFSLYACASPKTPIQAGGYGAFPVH
Experimental: Biological Methods—DELFIA Kinase Assay
Compounds were assessed by a kinase assay performed according to the following protocol.
DELFIA Kinase Buffer (DKB):
DKB1 (DKB with B-RAF and MEK Protein):
Combine 4950 μL of DKB and 50 μL of 2.5 mg/ml GST-MEK stock (to give […] of MEK per 40 μL). Then add 22.5 μL of B-RAF to give ˜0.2 μL of B-RAF per 40 μL.
DKB2 (DKB with MEK Protein):
Combine 4950 μL of DKB and 50 μL of 2.5 mg/ml GST-MEK stock (to give 1 mg of MEK per 40 μL). Use 500 μL of this for the blow out (BO) and the empty vector (EV) control.
100 mM stock, dilute to 500 μM to give 100 μM final concentration in assay.
Inhibitors (Test Compounds):
Phospho-MEK½ CST #9121S diluted 1:1000 in DELFIA assay buffer (AB). Preincubate antibody in the AB for 30 minutes at room temperature prior to use.
Anti-rabbit-Eur labelled secondary Perkin Elmer #AD0105 diluted 1:1000 in DELFIA assay buffer (AB). Preincubate antibody in the AB for 30 minutes at room temperature prior to use. (Primary and secondary antibodies were incubated together.)
1. Preblock wells with 5% milk in TBS for 1 hour.
2. Wash wells with 3× with 200 μL TBS.
3. Plate out 40 μL of DKB1 for all inhibitors (test compounds), DMSO control, and optionally other control compounds.
4. Plate out 40 μL of DKB2 for BO and EV wells.
5. Add inhibitors (test compounds) at 0.5 μL per well according to desired plate layout.
6. Add 0.5 μL DMSO to vehicle control wells.
7. Add 2 μL of B-RAF to BO and EV wells.
8. Pre-incubate with inhibitors (test compounds) for 10 minutes at room temperature with shaking.
9. Add 10 μL of 500 μM ATP stock, in DKB, to give 100 μM assay concentration.
10. Seal plates with TopSeal and incubate at room temperature with shaking for 45 minutes.
11. Wash plates 3× with 200 μL 0.1% Tween20/Water to terminate reaction.
12. Add 50 μL per well of antibody mix and incubate for 1 hour at room temperature with shaking.
13. Wash plates 3× with 200 μL 0.1% Tween20/Water.
14. Add 100 μL DELFIA enhancement solution per well, cover in foil, and incubate at room temperature for 30 minutes with shaking.
15. Read on Victor using Europium protocol.
as §1, with “(Empty Vector)” for “(no cells)”

WM266.4 melanoma cells = experiment: SRB Cell Proliferation Assay (SRB GI50); type: cell-based; settings: Homo sapiens, WM 266-4, 144 h, 6 days growth
Experimental: Biological Methods—SRB Cell Proliferation Assay (SRB GI50)
Cultures of WM266.4 melanoma cells are routinely cultured in DMEM/10% foetal bovine serum, at 37° C., in 5% CO2 water saturated atmosphere. Cultures are maintained in exponential growth phase by sub-culturing before having become confluent (3-5 day intervals). Single cell suspensions are prepared by harvesting an 80 cm^2 tissue culture flask with 5 mL commercial trypsin EDTA. After 5 minutes, the detached cells are mixed with 5 mL fully complemented culture medium and centrifugally pelleted (1000 rpm for 7 minutes). After aspirating the supernatant, the cell pellet is re-suspended in 10 mL fresh medium and the cells fully disaggregated by drawing the whole volume up/down 5 times through a 19-gauge needle. The concentration of the cells is determined using a haemocytometer (1/10 dilution). A suitable volume to give at least a 2-fold excess for the number of tests being conducted, typically 100-200 mL, is prepared by diluting the cell suspension to 10,000/mL, and 100 μL/well dispensed into 96 well plates using a programmable 8-channel peristaltic pump, giving 1000 cells/well, leaving column 12 blank. The plates are returned to the incubator for 24 hours to allow the cells to re-attach.
The compounds being tested are prepared at 20 mM in dimethylsulphoxide. Aliquots (200 μL) are diluted into 20 mL culture medium giving 200 μM, and 10 serial dilutions of 3× performed by transferring 5 mL to 10 mL. Aliquots (100 μL) of each dilution are added to the wells, using an 8-channel pipettor, thus performing a final further 2× dilution, and giving doses ranging from 100 μM to 0.005 μM. Column 11 receives plain culture medium only. Each compound is tested in quadruplicate, each replicate being the average of four wells, and two plates per compound.
After a further 6 days growth, the plates are emptied, and the cells are fixed in 10% trichloroacteic acid for 10 minutes on ice. After thorough rinsing in running tap water, the plates are dried, and stained by adding 50 μL of a solution of 0.1% sulphorhodamine-B in 1% acetic acid, for 10 minutes at room temperature. The stain is poured out and the plates thoroughly rinsed under a stream of 1% acetic acid, thus removing unbound stain, and dried. The bound stain is taken into solution by addition of 150 μL Tris buffer pH 8, followed by 10 minutes on a plate-shaker (approximately 500 rpm). The absorbance at 540 nm in each well (being proportional to the number of cells present) is determined using a plate reader.
After averaging the results in rows A-D and E-H, the blank value (row 12) is subtracted, and results expressed as percentage of the untreated value (row 11). […] The GI50 generated by this procedure is the concentration of the drug that produces a percentage control A540 midway between the saturation, and zero-effect plateaus.

SMILES	pIC50 (pERK)	pIC50 (B-RAF)	GI50 (WM266.4 melanoma cells) [µM]
Cc1ccc(-n2nc(C(C)(C)C)cc2NC(=O)Nc2ccc(Oc3ccnc4[nH]c(=O)cnc34)c3cccnc23)cc1 [BB-007, 5-[(8-Amino-quinolinyl-5-oxy)carbonylamino-5-(1-N-p-tolyl-3-t-butyl-imidazolyl)]-pyridin-[2,3]pyrazin-2-one]	≥ 5.00	≥ 6.00	≤ 10
CC(C)(C)c1cc(NC(=O)Nc2ccc(Oc3ccnc4[nH]c(=O)[nH]c34)c3cccnc23)n(-c2ccccc2)n1 [AA-005, 4-[(5-Oxy-quinolinyl-8-amino)carbonyl-amino-(1-N-phenyl-3-t-butyl-pyrazol-5-yl)]-pyridin-5,6-imidazolone]	≥ 5.00	≥ 6.00	≤ 10
Cc1nc2c(Oc3ccc(NC(=O)Nc4cc(C(F)(F)F)ccc4F)c4ncccc34)ccnc2[nH]c1=O [BB-001, 5-[(8-Amino-quinolinyl-5-oxy)carbonylamino-(2-fluoro-5-trifloromethylphenyl)]-pyridin-[2,3]-3-methylpyrazin-2-one]	≥ 5.00	≥ 6.00	≤ 10
Cn1c(=O)[nH]c2c(Oc3ccc(NC(=O)Nc4ccc(Cl)c(C(F)(F)F)c4)c4ncccc34)ccnc21 [AA-014, 5-[(8-Amino-quinolinyl-5-oxy)carbonylamino-3-(2-trifluoromethyl-3-chloro-phenyl)]-pyridin-[2,3]-N-methylimidazol-2-one]	≥ 5.00	≥ 6.00	≤ 10
Cn1c(=O)[nH]c2c(Oc3ccc(NC(=O)Nc4cccc(C(C)(C)C)c4)c4ncccc34)ccnc21 [AA-018, 5-[(8-Amino-quinolinyl-5-oxy)carbonylamino-3-(t-butyl-phenyl)]-pyridin-[2,3]1-N-methylimidazol-2-one]	≥ 5.00	≥ 6.00	≤ 10
O=C(Nc1cc(C(F)(F)F)ccc1F)Nc1ccc(Oc2ccnc3[nH]c(=O)[nH]c23)c2cccnc12 [AA-010, 4-[(5-Oxy-quinolinyl-8-amino)carbonylamino-(2-fluoro-5-trifluoromethyl-phenyl)]-pyridin-5,6-imidazolone]	≥ 5.00	≥ 6.00	≤ 10
CC(C)(C)c1cc(NC(=O)Nc2ccc(Oc3ccnc4[nH]c(=O)cnc34)c3cccnc23)n(-c2ccccc2)n1 [BB-008, 5-[(8-Amino-quinolinyl-5-oxy)carbonylamino-5-(1-N-phenyl-3-t-butyl-imidazolyl)]-pyridin-[2,3]pyrazin-2-one]	≥ 5.00	≥ 6.00	≤ 10
C#CCn1nc(C(C)(C)C)cc1NC(=O)Nc1ccc(Oc2ccnc3[nH]c(=O)c(C)nc23)c2cccnc12 [BB-011]	≥ 5.00	≥ 6.00	≤ 10
O=C(Nc1cccc(SC(F)(F)F)c1)Nc1ccc(Oc2ccnc3[nH]c(=O)[nH]c23)c2cccnc12 [AA-009, 4-[(5-Oxy-quinolinyl-8-amino)carbonylamino-(3-trifluoromethylthio-phenyl)]-pyridin-5,6-imidazolone]	≥ 5.00	≥ 6.00	≤ 10
O=C(Nc1cccc(C(F)(F)F)c1)Nc1ccc(Oc2ccnc3[nH]c(=O)[nH]c23)c2cccnc12 [AA-008, 4-[(5-Oxy-quinolinyl-8-amino)carbonylamino-(3-trifluoromethyl-phenyl)]-pyridin-5,6-imidazolone]	≥ 5.00	≥ 6.00	≤ 10
C#CCn1nc(C(C)(C)C)cc1NC(=O)Nc1ccc(Oc2ccnc3[nH]c(=O)cnc23)c2cccnc12 [BB-012]	≥ 5.00	≥ 6.00	≤ 10
C=CCn1nc(C(C)(C)C)cc1NC(=O)Nc1ccc(Oc2ccnc3[nH]c(=O)cnc23)c2cccnc12 [BB-013]	≥ 5.00	≥ 6.00	≤ 10
Cn1nc(C(C)(C)C)cc1NC(=O)Nc1ccc(Oc2ccnc3c2[nH]c(=O)n3C)c2cccnc12 [AA-017, 5-[(8-Amino-quinolinyl-5-oxy)carbonylamino-5-(1-methyl-3-t-butyl-imidazolyl)]-pyridin-[2,3]1-N-methylimidazol-2-one]	≥ 5.00	≥ 6.00	≤ 10
Cc1nc2c(Oc3ccc(NC(=O)Nc4cc(C(C)(C)C)nn4C)c4ncccc34)ccnc2[nH]c1=O [BB-006, 5-[(8-Amino-quinolinyl-5-oxy)carbonylamino-5-(1-methyl-3-t-butyl-imidazolyl)]-pyridin-[2,3]-3-methylpyrazin-2-one]	≥ 5.00	≥ 6.00	≤ 10
